Data: patent publication US20240238228A1, “COMPOSITIONS AND METHODS FOR TREATING ALLERGIES AND INFLAMMATORY CONDITIONS” (UNIVERSITY OF PITTSBURGH-OF THE COMMONWEALTH SYSTEM OF …, priority 2021, published 2024)
Each block holds one compound with its values, some of them ahead of it.

Assays:
peanut allergy = assay: Peanut allergy desensitization by microneedle arrays; format: in vivo, mouse; settings: delivered with peanut antigen by microneedle arrays to sensitized mice
IL-10 = IL-10 degradation assays on BMMC supernatants; format: cell-based, murine
Protocol: To detect early IL-10 release, 4×10^6 cells were incubated in serum free RPMI for a minimum of three hours prior to IgE loading and activation with DNP-HSA (100 ng/mL). Supernatants were collected and IL-10 was detected in accord with manufacturer's recommendations using 1.0% BSA to block and a top standard of 250 pg/mL. The lower limit of detection was 7.8 pg/mL. To evaluate the role of relationship between calpain and IL-10, cell-free supernatants were collected 10 min after activation and incubated with Ac-calpastatin (Ac-Cal; 20 μg/mL, Cayman) or vehicle control. […] To directly test IL-10 proteolysis, MCs were activated for 45 min, cell free supernatants were collected and pulsed with recombinant IL-10 (Biolegend, 250 pg/mL).

[1] = test system: passive cutaneous anaphylaxis (PCA); assay: Passive cutaneous anaphylaxis (PCA) in mice; format: in vivo, mouse
Protocol: Mouse ears were measured with a micrometer then sensitized with IgE in filter-sterilized PBS (Sigma, clone SPE-7, 20 ng/50 μl/ear) or vehicle control. Twenty-four hours later mice were treated with NKA (10 μg/ear, intradermal) or vehicle (PBS) 3 h prior to Ag (DNP-HSA 100 μg, in 200 μl, intravenous in saline) administration. Data are presented as change in ear thickness between baseline and the indicated time. […] Edema was evaluated histologically and as a function of Evans blue dye extravasation. For histological evaluation, mice were euthanized 2 h after PCA induction. Paraformaldehyde (4.0%) fixed ears were processed for hematoxylin and eosin staining. Pathology was blindly evaluated on an Axiostar plus microscope equipped with epifluorescence and a digital camera (AxioCam; Zeiss). For dye extravasation, Ag was delivered in 1.0% Evans blue dye. Ninety min later mice were euthanized, and ears were excised. Dye was extracted in DriSolv (EMD Millipore) and quantified as absorbance at OD 650 nm. Data are shown as OD650/mg of tissue. Cytokine expression in the skin was investigated 24 h after PCA induction. Mice were euthanized, ears excised, and tissue homogenized in T-PER (ThermoFisher) with Protease Inhibitor Cocktail (Sigma). Protein concentrations were quantified using the BCA Protein Assay (Pierce). The protein profile of skin homogenates was characterized with C-Series Mouse Cytokine Antibody Array C1 (RayBiotech). Densitometry values subtracting the median background from individual spot areas were calculated with ImageStudioLite v5.2.5. The densitometry value from each cytokine spot was divided by the mean densitometry of positive control spots to give relative protein expression. Data were from each experiment were normalized as (Relative Expression [Treated]/Relative expression [Vehicle]). In some experiments, ELISAs were performed on skin homogenates. Neutrophil influx was evaluated as a function of myeloperoxidase (MPO) activity. To detect MPO activity, tissue was homogenized with a Next Advance Bullet Homogenizer in 50 mM KPG4 with 50 mM […]. Homogenate was incubated with ODP (Sigma) with 0.005% H2O2 for 30 minutes. Enzymatic reactions were stopped with 1N HCl and absorbance was read at 450 nm.

atopic dermatitis = assay: MC903-induced atopic dermatitis model; format: in vivo, murine; settings: MC903 4 nmol/ear daily, glyburide 2.5 mg/kg, i.p.
Protocol: Atopic dermatitis was induced by treating ears with MC903 (4 nmol/ear, daily). The contralateral ear was treated with the vehicle for MC903. Mice were treated with either glyburide (2.5 mg/kg, i.p., daily) or vehicle control. (A) Ear thickness was measured daily. (B-C) On day 11, mice were euthanized and ear tissue embedded sectioned and stained with (B) H & E to evaluate cellular infiltration or (C) Avidin (AvRho) to evaluate mast cells. […] (B-C) show representative images from 3-7 mice over two experiments.

IL10-eGFP^+ MCs = assay: IL-10-GFP expression in skin mast cells of VERT-X reporter mice; format: in vivo, mouse; settings: with and without PCA induction
Protocol: C6(Cg)-IL10^tm1.1.Karp/J (VERT-X) mice (Jackson Laboratories) were bred at the University of Pittsburgh. On d0, mice were treated with vehicle on one ear and IgE on the contralateral ear. On day 1, mice were treated with either NKA ([…]) on both ears or vehicle on both ears. Three hours later, PCA was induced. On day 2, mice were euthanized. Excised Ear tissue was digested in IMDM media (Life Technologies) containing collagenase D (Sigma, 1.0 mg/mL) and DNAase (Roche, 1.0 mg/mL) at 37 C for 45 minutes. Single cell homogenates were blocked with FcBlock and stained. In some experiments, avidin AlexaFluro488 was injected intradermally to label cutaneous mast cells were labelled in vivo. Mice were euthanized 7 days after injection.
In other methods, mast cells differentiated for 5-7 weeks (BMMCs) or 3-4 weeks (PMCs) were collected, blocked with FcBlock and stained with anti-FceRI PE (clone MAR-1, Biolegend), anti-CD117 eFluor 450 clone 2B8, ThermoFisher) and anti-NK2R Alexa Fluor 647 or rabbit IgG Alexa Fluor 647 isotype control (Cell Signaling Technology). […]

PMCs = assay: β-hexosaminidase release from PMCs; format: cell-based, murine; settings: incubated with NKA or activated with IgE and antigen in the presence of NKA
Protocol: (§1) Mast cells (5×10^5-1×10^6) were loaded with IgE ([…]) for a minimum of 3 h in Tyrode's Buffer. Neurokinin A ([…]) was added with DNP-HSA (Sigma, as indicated or 100 ng/mL) for 40 min at 37 C. Cells and supernatants were collected, cell pellets were lysed in Tyrode's Buffer by freeze-thawing then incubated with p-nitrophenyl N-acetyl j-D-glucosaminide (EMB Millipore, 5 mM) dissolved in citrate buffer (0.04 M, pH 4.5) for 90 minutes. The enzymatic reaction was stopped with glycine (0.4 M, pH 10.7). Absorbance at 450 nm was read. The average percentage of b-hexosaminidase release from triplicate values was calculated as (ODsup/ODsup+ODlysate)×100(%).

BMMCs = assay: β-hexosaminidase release from BMMCs; format: cell-based, murine; settings: incubated with NKA or activated with IgE and antigen in the presence of NKA
Protocol: as §1

[2] = 24 h after PCA induction, NKA pretreatment
[3] = 24 h after PCA induction, NKA pretreatment, listed as Neurokinin A
[4] = NKA 10 μg/ear intradermal 3 h prior to Ag

Compound: COc1ccc(Cl)cc1C(=O)NCCc1ccc(S(=O)(=O)NC(=O)NC2CCCCC2)cc1 [glyburide, reference compound]
allergy to peanut allergen after CPE challenge (peanut allergy): desensitizes
IL-10 levels (IL-10; increasing concentrations of glyburide 10 min prior to activation, supernatants 30 min after activation): increasing
ear thickness at 24 h ([1]; glyburide 2.5 mg/kg i.p. 3 h prior to PCA induction): significantly reduced
cutaneous inflammation (atopic dermatitis): reduces cutaneous inflammation

β-hexosaminidase release (PMCs): no difference
β-hexosaminidase release (BMMCs): no difference
Compound: Neurokinin A [NKA]
increase in percentage of IL10-eGFP^+ MCs (IL10-eGFP^+ MCs): two-fold
early IL-10 in supernatants (IL-10; 60 min after activation with NKA): significantly more IL-10
degradation of early IL-10 / pulsed rIL-10 by released proteases (IL-10; cell-free supernatants pulsed with rIL-10 for 30 min): disrupted
IFNγ levels in skin (protein array) [1, 2]: not statistically significant, IFNγ levels increased
IL-3 in IgE-treated skin (protein array) [1, 2]: significantly reduced
IL-6 in IgE-treated skin (protein array) [1, 2]: significantly reduced
IL-13 in IgE-treated skin (protein array) [1, 2]: down-regulated
MCP1 in IgE-treated skin (protein array) [1, 2]: significantly reduced
RANTES in IgE-treated skin (protein array) [1, 2]: significantly reduced
TNF in IgE-treated skin (protein array) [1, 2]: down-regulated
IL-13 in IgE-treated skin (protein array) [1, 3]: significantly reduced
TNF in IgE-treated skin (protein array) [1, 3]: significantly reduced
Evans blue dye extravasation ([1]; Mcpt5Cre^+×IL10/l mice): no effect
Evans blue dye extravasation ([1]; Mcpt5Cre^+×IL10^WT mice): inhibited
IL-13 in the skin by ELISA ([1]; Mcpt5 Cre^+×IL10^WT mice, 24 h): significantly downregulated
TNF in the skin by ELISA ([1]; Mcpt5 Cre^+×IL10^WT mice, 24 h): significantly downregulated
immune-regulatory capacity (ear measurements) at 2 h and 24 h after PCA induction ([1]; Mcpt5Cre^+×IL10^fl/fl mice): lost
ear thickness, early (1-2 hours) phase of PCA [1, 4]: reduced ear thickness
ear thickness, late phase of PCA (24 h) [1, 4]: reduced ear thickness
Evans blue dye extravasation ([1]; NKA 10 μg/ear intradermal 3 h prior to Ag, 90 min after Ag): reduced Evans blue dye extravasation
edema in histological sections, early phase of PCA ([1]; NKA 10 μg/ear intradermal 3 h prior to Ag, 2 h after PCA induction): a reduction in edema
IL-10 protein in total skin homogenates ([1]; NKA pretreated mice): did not increase
myeloperoxidase activity in skin homogenates, 24 h ([1]; NKA pretreatment): reduced myeloperoxidase activity
neutrophil influx in histological sections, late phase (24 h) ([1]; NKA pretreatment): reduced neutrophil influx
IL-13 in the skin ([1]; absence of MC-derived IL-10): increased
TNF in the skin ([1]; absence of MC-derived IL-10): increased
PCA, including degranulation-associated edema ([1]; overall statement): fully inhibited
